Measurements: patent publication US11001600B2, “Disubstituted compounds for treatment of medical disorders” (Achillion Pharmaceuticals, Inc., priority 2015, dated 2021)

Target: Human Factor D (Homo sapiens (Human), UniProt P00746)
Assay: Human Factor D assay
Format: biochemical
Conditions: not given
Protocol: Example 8. Human Factor D Assay
Human Factor D (purified from human serum, Complement Technology, Inc.) at 80 nM final concentration is incubated with test compound at various concentrations for 5 minutes at room temperature in 50 mM Tris, 1M NaCl, pH 7.5. A synthetic substrate Z-L-Lys-SBzl and DTNB (Ellman's reagent) are added to final concentrations of 100 μM each. Absorbance at 405 nm (A405) is recorded at 30 second intervals for 30 minutes using a microplate spectrophotometer. IC50 values are calculated by nonlinear regression of complement Factor D reaction rates as a function of test compound concentration.

Sequence of Human Factor D (P00746 26-253): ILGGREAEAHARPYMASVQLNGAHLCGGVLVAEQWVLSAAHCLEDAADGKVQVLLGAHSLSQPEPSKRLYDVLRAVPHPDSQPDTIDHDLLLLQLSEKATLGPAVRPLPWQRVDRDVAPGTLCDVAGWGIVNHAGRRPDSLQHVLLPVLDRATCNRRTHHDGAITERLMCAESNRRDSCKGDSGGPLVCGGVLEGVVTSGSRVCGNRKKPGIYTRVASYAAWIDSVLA

Row | SMILES | IC50 [µM]
1 | CC(C)(C)OC(=O)N=S(C)(=O)c1cccc(-c2cccc(NC(=O)[C@@H]3C[C@@H](F)CN3C(=O)Cn3nc(C(N)=O)c4ccccc43)c2F)c1 (stereo partly drawn) [Compound 49, tert-butyl ((3′-((2S,4R)-1-(2-(3-carbamoyl-1H-indazol-1-yl)acetyl)-4-fluoropyrrolidine-2-carboxamido)-2′-fluoro-[1,1′-biphenyl]-3-yl)(methyl)(oxo)-16-sulfaneylidene)-14-azanecarboxylate] | 1 to 10

Same assay, conditions: Factor D 80 nM, substrate Z-L-Lys-SBzl; Table 1; read-out: IC50

Row | SMILES | IC50 [µM]
2 | CCOP(=O)(COc1cc2c(cc1-c1cnc(C)nc1)c(C(C)=O)cn2CC(=O)N1C[C@H](F)C[C@H]1C(=O)Nc1cccc(-c2ccccc2Cl)c1F)OCC [Compound 8, diethyl (3-acetyl-1-(2-((2S,4R)-2-(2′-chloro-2-fluorobiphenyl-3-ylcarbamoyl)-4-fluoropyrrolidin-1-yl)-2-oxoethyl)-5-(2-methylpyrimidin-5-yl)-1H-indol-6-yloxy)methylphosphonate] | < 1
3 | CC(=O)c1cn(CC(=O)N2C[C@H](F)C[C@H]2C(=O)Nc2cccc(Br)n2)c2cc(OCP(=O)(O)O)c(-c3cnc(C)nc3)cc12 [Compound 13, (3-acetyl-1-(2-((2S,4R)-2-(6-bromopyridin-2-ylcarbamoyl)-4-fluoropyrrolidin-1-yl)-2-oxoethyl)-5-(2-methylpyrimidin-5-yl)-1H-indol-6-yloxy)methylphos-phonic acid] | < 1
4 | CC(=O)c1cn(CC(=O)N2C[C@H](F)C[C@H]2C(=O)Nc2cccc(-c3ccccc3Cl)c2F)c2cc(OCP(=O)(O)O)c(-c3cnc(C)nc3)cc12 [Compound 9, (3-acetyl-1-(2-((2S,4R)-2-(2′-chloro-2-fluorobiphenyl-3-ylcarbamoyl)-4-fluoropyrrolidin-1-yl)-2-oxoethyl)-5-(2-methylpyrimidin-5-yl)-1H-indol-6-yloxy)methylphos-phonic acid] | < 1

Same assay, conditions: Factor D 80 nM, substrate Z-L-Lys-SBzl; Table 2 (headed TABLE 1); read-out: IC50

Row | SMILES | IC50 [µM]
5 | CC(=O)c1nn(CC(=O)N2C[C@H](F)C[C@H]2C(=O)Nc2cccc(Br)n2)c2cc(OCC(=O)N(C)C)c(-c3cnc(C)nc3)cc12 [Compound 26, (2S,4R)-1-(2-(3-acetyl-6-(2-(dimethylamino)-2-oxoethoxy)-5-(2-methylpyrimidin-5-yl)-1H-indazol-1-yl)acetyl)-N-(6-bromopyridin-2-yl)-4-fluoropyrrolidine-2-carboxamide] | < 1
6 | CC(=O)c1cn(CC(=O)N2C[C@H](F)C[C@H]2C(=O)Nc2cccc(Br)n2)c2ccc(S(C)(=O)=NC(=O)OC(C)(C)C)cc12 (stereo partly drawn) [Compound 47, tert-butyl ((3-acetyl-1-(2-((2S,4R)-2-((6-bromopyridin-2-yl)carbamoyl)-4-fluoropyrrolidin-1-yl)-2-oxoethyl)-1H-indol-5-yl)(methyl)(oxo)-16-sulfaneylidene)-14-azanecarboxylate] | < 1
7 | CC(=O)c1nn(CC(=O)N2C[C@H](F)C[C@H]2C(=O)Nc2cccc(Br)n2)c2cc(OCCN(C)C)c(-c3cnc(C)nc3)cc12 [Compound 44, (2S,4R)-1-(2-(3-acetyl-6-(2-(dimethylamino)ethoxy)-5-(2-methylpyrimidin-5-yl)-1H-indazol-1-yl)acetyl)-N-(6-bromopyridin-2-yl)-4-fluoropyrrolidine-2-carboxamide] | < 1
8 | CC(=O)c1cn(CC(=O)N2C[C@H](F)C[C@H]2C(=O)Nc2cccc(Br)n2)c2ccc(S(C)(=N)=O)cc12 (stereo partly drawn) [Compound 48, (2S,4R)-1-(2-(3-acetyl-5-(S-methylsulfonimidoyl)-1H-indol-1-yl)acetyl)-N-(6-bromopyridin-2-yl)-4-fluoropyrrolidine-2-carboxamide] | < 1
9 | CC(=O)c1nn(CC(=O)N2C[C@H](F)C[C@H]2C(=O)Nc2cccc(Br)n2)c2cc(OCCO)c(-c3cnc(C)nc3)cc12 [Compound 41, (2S,4R)-1-(2-(3-acetyl-6-(2-hydroxyethoxy)-5-(2-methylpyrimidin-5-yl)-1H-indazol-1-yl)acetyl)-N-(6-bromopyridin-2-yl)-4-fluoropyrrolidine-2-carboxamide] | < 1
10 | CC(=O)c1nn(CC(=O)N2C[C@H](F)C[C@H]2C(=O)Nc2cccc(Br)n2)c2cc(OCCOCc3ccccc3)c(-c3cnc(C)nc3)cc12 [Compound 33, (2S,4R)-1-(2-(3-acetyl-6-(2-(benzyloxy)ethoxy)-5-(2-methylpyrimidin-5-yl)-1H-indazol-1-yl)acetyl)-N-(6-bromopyridin-2-yl)-4-fluoropyrrolidine-2-carboxamide] | < 1
11 | COCOCCOc1cc2c(cc1-c1cnc(C)nc1)c(C(C)=O)nn2CC(=O)N1C[C@H](F)C[C@H]1C(=O)Nc1cccc(Br)n1 [Compound 39, (2S,4R)-1-(2-(3-acetyl-6-(2-(methoxymethoxy)ethoxy)-5-(2-methylpyrimidin-5-yl)-1H-indazol-1-yl)acetyl)-N-(6-bromopyridin-2-yl)-4-fluoropyrrolidine-2-carboxamide] | < 1
12 | CC(=O)c1nn(CC(=O)N2C[C@H](F)C[C@H]2C(=O)Nc2cccc(Br)n2)c2ccc(-c3cnc(S(C)(=N)=O)nc3)cc12 (stereo partly drawn) [Compound 46, (2S,4R)-1-(2-(3-acetyl-5-(2-(S-methylsulfonimidoyl)pyrimidin-5-yl)-1H-indazol-1-yl)acetyl)-N-(6-bromopyridin-2-yl)-4-fluoropyrrolidine-2-carboxamide] | < 1
